One data set has as its system Hep3B cells. As to the kind of experiment: Human liver cancer cell Hep3B survival test (CellTiter-Glo). Type of data set: cell-based. The note with it: 72 hours compound treatment. As to the method:
Human Liver Cancer Cell Hep3B Survival Test
The human liver cancer Hep3B cell line was from ATCC. The cells were cultured in DMEM liquid medium, and fetal bovine serum (10% FBS) and penicillin-streptomycin (100,000 U/L) were added. The cells were kept at 37° C., 95% humidity and 5% carbon dioxide in the culture medium. During the experiment, Hep3B cells were seeded in a 96-well plate at a density of 3000 cells per well. The volume of the cell suspension was 100 μL per well, and the cells were cultured overnight to attach the cells. The next day, each compound was diluted with DMSO in a three-fold gradient, and 1 μL of the solution of the compound in DMSO was added to the cell culture medium. At the same time, 1 μL of DMSO was used as a control. Three parallel sub-wells were set for each concentration of each compound. Then the cells were placed in a 37° C. incubator. After 72 hours of continuous compound treatment, 50 μL CellTiter-Glo (Promega, Madison Wis.) was added to the cell culture medium. The relative luminescence unit (RLU) of each well was determined and the cell survival rate and compound activity (IC50) were calculated.
Background: ATP-based viability assays read luminescence as a measure of living cells.

The next data set addresses T1, FGFR1 (Homo sapiens, UniProt P11362).
T1 construct: purchased Cama (sic; Carna) 08-133
As to the kind of experiment: Enzymatic activity test of FGFR inhibitor, Caliper model. Type of data set: biochemical.

Another data set has as its target FGFR2 (Homo sapiens, UniProt P21802). The description is as above. It counts as biochemical. To be noted: kinase pre-incubation 10 minutes.
A further data set has as its target FGFR3 (Homo sapiens, UniProt P22607). The description is as above. Type of data set: biochemical. To be noted: kinase pre-incubation 10 minutes.
A further data set concerns the target T2, FGFR4 (Homo sapiens, UniProt P22455).
T2 construct: purchased Invitrogen PR4380A
The data set is described as above. It counts as biochemical.

A short description of data set [1]: Compound pharmacokinetic experiment, single intragastric administration. Type of data set: in vivo. To be noted: mouse, plasma, male mice, oral dosage 15 mg/Kg; for Cmax: read-out: Peak plasma concentration Cmax; for AUC: read-out: Plasma exposure AUC. As to the method:
Compound Pharmacokinetic Experiment
The pharmacokinetics of the compounds of the present disclosure was determined. This application used the following methods to determine the pharmacokinetic parameters of the compounds.
For the healthy male adult mice used in the study, each group of animals was given a single intragastric administration of 5-100 mg/Kg. Fasting was from 10 hours before administration to 4 hours after administration. Blood was collected at different time points after administration, and the plasma content of the compound was determined (LC-MS/MS). The plasma concentration-time relationship was analyzed with professional software (winnonlin) to calculate the pharmacokinetic parameters of the compound.

Setting [2] is: Caliper, kinase pre-incubation 10 minutes, read-out: FGFR1.
[3] abbreviates: Caliper, kinase pre-incubation 10 minutes, read-out: FGFR4.

pIC50: −log10 of the molar value. Where two headings read alike, the source gives them in different places.

Sequence of FGFR3 (P22607 23-806): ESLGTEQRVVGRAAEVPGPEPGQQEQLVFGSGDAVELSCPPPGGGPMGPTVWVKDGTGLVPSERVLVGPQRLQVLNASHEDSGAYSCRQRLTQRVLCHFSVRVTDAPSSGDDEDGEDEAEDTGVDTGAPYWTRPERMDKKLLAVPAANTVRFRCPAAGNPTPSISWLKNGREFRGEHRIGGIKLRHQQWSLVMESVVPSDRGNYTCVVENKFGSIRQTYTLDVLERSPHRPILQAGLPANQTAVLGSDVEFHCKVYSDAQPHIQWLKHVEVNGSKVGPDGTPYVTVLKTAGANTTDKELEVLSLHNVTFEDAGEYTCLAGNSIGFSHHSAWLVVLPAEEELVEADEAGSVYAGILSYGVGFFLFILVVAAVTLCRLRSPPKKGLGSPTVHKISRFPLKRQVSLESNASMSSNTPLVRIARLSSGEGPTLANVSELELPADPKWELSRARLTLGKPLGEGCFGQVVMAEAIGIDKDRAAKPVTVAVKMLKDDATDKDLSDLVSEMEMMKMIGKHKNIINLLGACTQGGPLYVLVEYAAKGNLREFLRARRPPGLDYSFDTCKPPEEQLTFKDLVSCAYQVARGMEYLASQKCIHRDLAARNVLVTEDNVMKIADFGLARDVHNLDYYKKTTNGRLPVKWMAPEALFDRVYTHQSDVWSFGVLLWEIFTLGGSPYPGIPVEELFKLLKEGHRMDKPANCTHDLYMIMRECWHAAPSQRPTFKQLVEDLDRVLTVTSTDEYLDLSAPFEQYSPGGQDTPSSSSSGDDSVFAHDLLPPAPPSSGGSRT
T2 sequence (P22455 22-802): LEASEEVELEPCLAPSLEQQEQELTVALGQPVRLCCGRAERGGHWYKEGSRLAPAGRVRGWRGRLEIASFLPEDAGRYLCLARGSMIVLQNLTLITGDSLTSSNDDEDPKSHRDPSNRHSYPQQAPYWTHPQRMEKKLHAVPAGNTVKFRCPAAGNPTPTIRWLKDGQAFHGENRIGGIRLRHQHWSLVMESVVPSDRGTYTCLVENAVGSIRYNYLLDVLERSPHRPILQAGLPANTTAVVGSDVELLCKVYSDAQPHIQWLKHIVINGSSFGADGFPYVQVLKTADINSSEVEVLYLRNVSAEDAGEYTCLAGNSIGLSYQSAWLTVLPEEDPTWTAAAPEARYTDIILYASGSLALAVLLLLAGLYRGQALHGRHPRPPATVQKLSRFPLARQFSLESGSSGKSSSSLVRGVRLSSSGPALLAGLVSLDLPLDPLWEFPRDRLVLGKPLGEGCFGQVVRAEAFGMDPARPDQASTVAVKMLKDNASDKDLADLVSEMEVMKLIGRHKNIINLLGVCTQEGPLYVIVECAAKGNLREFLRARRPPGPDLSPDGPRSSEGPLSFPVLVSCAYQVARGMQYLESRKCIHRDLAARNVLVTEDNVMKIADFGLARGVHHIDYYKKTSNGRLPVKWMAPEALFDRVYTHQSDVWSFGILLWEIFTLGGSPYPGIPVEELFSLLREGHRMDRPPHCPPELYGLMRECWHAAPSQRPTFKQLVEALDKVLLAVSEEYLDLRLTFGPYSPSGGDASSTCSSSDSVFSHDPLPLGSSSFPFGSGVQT
T1 sequence (P11362 22-822): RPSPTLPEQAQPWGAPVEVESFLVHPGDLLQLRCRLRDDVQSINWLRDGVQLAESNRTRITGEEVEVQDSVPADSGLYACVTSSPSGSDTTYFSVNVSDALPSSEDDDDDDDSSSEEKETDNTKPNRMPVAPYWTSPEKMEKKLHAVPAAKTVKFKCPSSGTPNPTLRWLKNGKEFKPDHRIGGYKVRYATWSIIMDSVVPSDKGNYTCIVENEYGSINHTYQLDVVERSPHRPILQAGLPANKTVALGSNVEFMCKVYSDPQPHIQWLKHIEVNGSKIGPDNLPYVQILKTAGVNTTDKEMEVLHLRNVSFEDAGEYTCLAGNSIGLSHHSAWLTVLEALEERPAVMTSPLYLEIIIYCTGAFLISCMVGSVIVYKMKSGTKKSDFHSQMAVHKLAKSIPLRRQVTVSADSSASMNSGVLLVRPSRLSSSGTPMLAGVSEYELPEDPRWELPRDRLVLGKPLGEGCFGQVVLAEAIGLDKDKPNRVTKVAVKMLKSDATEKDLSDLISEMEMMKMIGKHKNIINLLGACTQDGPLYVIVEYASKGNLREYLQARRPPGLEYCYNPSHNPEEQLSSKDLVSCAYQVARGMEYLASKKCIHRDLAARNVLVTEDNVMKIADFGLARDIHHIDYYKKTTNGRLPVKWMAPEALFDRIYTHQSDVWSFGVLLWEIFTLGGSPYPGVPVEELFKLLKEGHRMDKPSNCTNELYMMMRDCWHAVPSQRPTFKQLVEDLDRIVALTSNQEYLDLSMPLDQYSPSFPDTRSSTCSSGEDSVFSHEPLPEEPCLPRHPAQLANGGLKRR
Sequence of FGFR2 (P21802 22-821): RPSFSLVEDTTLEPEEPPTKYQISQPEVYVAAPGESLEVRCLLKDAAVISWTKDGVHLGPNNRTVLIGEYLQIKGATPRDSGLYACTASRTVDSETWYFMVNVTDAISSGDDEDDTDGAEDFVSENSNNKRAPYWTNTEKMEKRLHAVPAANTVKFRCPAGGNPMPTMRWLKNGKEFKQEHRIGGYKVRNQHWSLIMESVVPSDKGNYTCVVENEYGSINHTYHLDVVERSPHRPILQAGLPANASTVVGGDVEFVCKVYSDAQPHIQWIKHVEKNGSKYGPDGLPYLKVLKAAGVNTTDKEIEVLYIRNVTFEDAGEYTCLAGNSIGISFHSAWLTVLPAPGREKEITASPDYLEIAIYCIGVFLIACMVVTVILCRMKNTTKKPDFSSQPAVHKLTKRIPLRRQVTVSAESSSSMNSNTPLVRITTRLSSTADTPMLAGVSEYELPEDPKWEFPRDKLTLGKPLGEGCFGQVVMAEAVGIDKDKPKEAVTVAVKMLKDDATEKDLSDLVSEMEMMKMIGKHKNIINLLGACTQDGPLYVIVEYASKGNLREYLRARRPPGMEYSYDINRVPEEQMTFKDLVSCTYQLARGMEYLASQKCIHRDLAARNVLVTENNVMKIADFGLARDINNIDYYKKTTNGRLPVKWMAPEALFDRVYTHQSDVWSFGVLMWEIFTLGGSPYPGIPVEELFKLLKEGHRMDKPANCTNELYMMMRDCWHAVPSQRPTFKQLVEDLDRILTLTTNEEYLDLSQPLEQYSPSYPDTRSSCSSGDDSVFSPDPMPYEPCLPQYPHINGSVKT
Method for FGFR1: (§1) Enzymatic Activity Test of FGFR Inhibitor-Caliper Model
(§2) The specific operation steps were as follows:
(§3) The compound was first serially diluted in 5% DMSO solution, and 5 μL of the compound solution was added to a 384-well plate. The maximum final concentration of the compound is 1 μM, being diluted three times with 10 concentrations.
(§4) 10 μL of kinase solution was added to the 384-well plate and incubated at room temperature for 10 minutes;
(§5) 10 μL of P22 peptide and ATP solution were added to the 384-well plate, and 25 μL of reaction stop buffer was added after a specific time at 28° C.;
(§6) The data was collected in Caliper read and the inhibition rate was calculated according to inhibition rate=(max−conversion)/(max−min)*100, where max is DMSO control, conversion is the reading of the compound treated group, and min is the maximum inhibition control. IC50 value of the compound was calculated with XLfit excel add-in version 5.4.0.8 software.
Method for FGFR2: as §1, §2, §3, §4, §5, §6
Method for FGFR4: as §1, §2, §3, §4, §5, §6

In the data set on Hep3B cells, `COc1cc(CCc2cc(NC(=O)c3ccc(N4C[C@@H](C)N[C@@H](C)C4)cc3)n[nH]2)cc(OC)c1` [AZD4547, reference compound] had a pIC50 of 6.58.

Regarding `C=CC(=O)Nc1cc(N2CCN(CC(F)(F)F)CC2)ccc1C(=O)Nc1cc(CCc2cc(OC)cc(OC)c2)n[nH]1` [Compound 2, 2-acrylamide-N-(3-(3,5-dimethoxyphenethyl)-1H-pyrazol-5-yl)-4-(4-(2,2,2-trifluoroethyl)piperazin-1-yl) benzamide], the pIC50 on FGFR1 (setting [2]) was 8.48; on FGFR2 it was 8.43; against FGFR3, 8.55; at FGFR4 (setting [3]), 8.48; in the data set with Hep3B cells, 9.10. For the same molecule, the Cmax in data set [1] is 2580 nM. The AUC (in general, concentration integrated over time) in data set [1] is 7.52 µM·h.

As to `C=CC(=O)Nc1cc(N2CCN(CC(F)F)CC2)ccc1C(=O)Nc1cc(CCc2cc(OC)cc(OC)c2)n[nH]1` [Compound 3, 2-acrylamide-4-(4-(2,2-difluoroethyl)piperazin-1-yl)-N-(3-(3,5-dimethoxyphenethyl)-1H-pyrazol-5-yl)benzamide], the pIC50 at FGFR1 was 8.44; at FGFR2 it was 8.28; against FGFR3, 8.34; at FGFR4, 8.24; in the data set with Hep3B cells, 8.52.

Take `C=CC(=O)Nc1cc(OCC(F)(F)F)ccc1C(=O)Nc1cc(CCc2cc(OC)cc(OC)c2)n[nH]1` [Compound 5, 2-acrylamido-N-(3-(3,5-dimethoxyphenethyl)-1H-pyrazol-5-yl)-4-(2,2,2-trifluoroethoxy)benzamide]: the pIC50 is 8.57 at FGFR1 (setting [2]); 8.57 against FGFR2; 8.62 on FGFR3; 8.60 on FGFR4 (setting [3]); 8.05 in the data set on Hep3B cells.

Consider `C=CC(=O)Nc1cc(N2CC(F)(F)C2)ccc1C(=O)Nc1cc(CCc2cc(OC)cc(OC)c2)n[nH]1` [Compound 6, 2-acrylamido-4-(3,3-difluoroazetidin-1-yl)-N-(3-(3,5-dimethoxyphenethyl)-1H-pyrazole-5-yl)benzamide], for which the pIC50 is 8.62 at FGFR1 (setting [2]); 8.64 on FGFR2; 8.77 against FGFR3; 8.70 at FGFR4 (setting [3]); 8.52 in the data set with Hep3B cells.

Consider `C=CC(=O)Nc1cc(N2CCC(F)(F)CC2)ccc1C(=O)Nc1cc(CCc2cc(OC)cc(OC)c2)n[nH]1` [Compound 7, 2-acrylamido-4-(4,4-difluoropiperidin-1-yl)-N-(3-(3,5-dimethoxyphenethyl)-1H-pyrazol-5-yl)benzamide], for which the pIC50 was 8.68 on FGFR1 (setting [2]); 8.47 against FGFR2; 8.64 against FGFR3; 8.49 at FGFR4 (setting [3]); 8.22 with Hep3B cells.

In the case of `C=CC(=O)Nc1cc(N2CCC(F)(F)C2)ccc1C(=O)Nc1cc(CCc2cc(OC)cc(OC)c2)n[nH]1` [Compound 8, 2-acrylamido-4-(3,3-difluoropyrrolidin-1-yl)-N-(3-(3,5-dimethoxyphenethyl)-1H-pyrazol-5-yl)benzamide], the pIC50 was 8.57 at FGFR1 (setting [2]); 8.55 on FGFR2; 8.64 against FGFR3; 8.57 on FGFR4 (setting [3]); 8.10 in the data set on Hep3B cells.

For the molecule `C=CC(=O)Nc1cc(OCCC(F)(F)F)ccc1C(=O)Nc1cc(CCc2cc(OC)cc(OC)c2)n[nH]1` [Compound 9, 2-acrylamido-N-(3-(3,5-dimethoxyphenethyl)-1H-pyrazol-5-yl)-4-(3,3,3-trifluoropropoxy)benzamide], the pIC50 at FGFR1 (setting [2]) was 8.51; on FGFR2, 8.36; at FGFR3, 8.36; on FGFR4 (setting [3]) it was 8.44; in the data set with Hep3B cells it was 8.70.

With `C=CC(=O)Nc1cc(N2CCN(CCC(F)(F)F)CC2)c(OC)cc1C(=O)Nc1cc(CCc2cc(OC)cc(OC)c2)n[nH]1` [Compound 10, 2-acrylamido-N-(3-(3,5-dimethoxyphenethyl)-1H-pyrazol-5-yl)-5-methoxy-4-(4-(3,3,3-trifluoropropyl)piperazin-1-yl)benzamide], the pIC50 was 8.24 at FGFR1 (setting [2]); 8.21 against FGFR2; 8.13 against FGFR3; 8.36 on FGFR4 (setting [3]); 8.52 with Hep3B cells. Besides, the Cmax in data set [1] was found to be 1250 nM. Moreover, the AUC in data set [1] worked out at 2.41 µM·h.

`C=CC(=O)Nc1cc(N2CCN(CCC(F)(F)F)C(C)C2)ccc1C(=O)Nc1cc(CCc2cc(OC)cc(OC)c2)n[nH]1` (stereo not shown) [Compound 12, 2-acrylamido-N-(3-(3,5-dimethoxyphenethyl)-1H-pyrazol-5-yl)-4-(3-methyl-4-(3,3,3-trifluoropropyl)piperazin-1-yl)benzamide]: the pIC50 at FGFR1 (setting [2]) was 8.57; against FGFR2, 8.39; against FGFR3, 8.52; at FGFR4 (setting [3]), 8.41; in the data set with Hep3B cells, 9.30. Also, the Cmax in data set [1] stood at 663 nM. In data set [1], the AUC came to 1.42 µM·h.

Regarding `C=CC(=O)Nc1cc(N(C)CCC(F)(F)F)ccc1C(=O)Nc1cc(CCc2cc(OC)cc(OC)c2)n[nH]1` [Compound 13, 2-acrylamido-N-(3-(3,5-dimethoxyphenethyl)-1H-pyrazol-5-yl)-4-(methyl(3,3,3-trifluoropropyl)amino)benzamide], the pIC50 was 8.47 on FGFR1 (setting [2]); 8.31 against FGFR2; 8.51 at FGFR3; 8.42 at FGFR4 (setting [3]); 7.92 in the data set on Hep3B cells.

Regarding `C=CC(=O)Nc1cc(N2CCN(CC(F)(F)C(F)(F)F)CC2)ccc1C(=O)Nc1cc(CCc2cc(OC)cc(OC)c2)n[nH]1` [Compound 14, 2-acrylamido-N-(3-(3,5-dimethoxyphenethyl)-1H-pyrazol-5-yl)-4-(4-(2,2,3,3,3-pentafluoropropyl)piperazin-1-yl)benzamide], the pIC50 is 8.21 on FGFR1 (setting [2]); 8.23 against FGFR2; 8.24 against FGFR3; 8.23 at FGFR4 (setting [3]); 8.15 in the data set with Hep3B cells. In data set [1], the Cmax was 344 nM. For the same molecule, the AUC in data set [1] turned out to be 1.15 µM·h.

Take `C=CC(=O)Nc1cc(N2CCN(CCC(F)(F)F)CC2)cnc1C(=O)Nc1cc(CCc2cc(OC)cc(OC)c2)n[nH]1` [Compound 15, 3-acrylamido-N-(3-(3,5-dimethoxyphenethyl)-1H-pyrazol-5-yl)-5-(4-(3,3,3-trifluoropropyl)piperazin-1-yl)pyridinecarboxamide]: the pIC50 at FGFR1 (setting [2]) is 8.32; at FGFR2, 8.35; against FGFR3 it was 8.41; on FGFR4 (setting [3]), 8.36; with Hep3B cells it was 7.92.

Consider `C=CC(=O)Nc1cc(N2CCN(CCC(F)(F)F)CC2)cc(F)c1C(=O)Nc1cc(CCc2cc(OC)cc(OC)c2)n[nH]1` [Compound 16, 2-acrylamido-N-(3-(3,5-dimethoxyphenethyl)-1H-pyrazol-5-yl)-6-fluoro-4-(4-(3,3,3-trifluoropropyl)piperazin-1-yl)benzamide], for which the pIC50 with Hep3B cells is 9.52.

For the molecule `C=CC(=O)Nc1ccccc1C(=O)Nc1cc(CCc2cc(OC)cc(OC)c2)[nH]n1` [Control a, 2-acrylamido-N-(3-(3,5-dimethoxyphenethyl)-1H-pyrazol-5-yl)benzamide, reference compound], the pIC50 was 8.35 on FGFR1 (setting [2]), 8.66 against FGFR2, 8.77 on FGFR3 and 8.30 in the data set on Hep3B cells. Also, the Cmax in data set [1] was 377 nM. The AUC in data set [1] came out at 0.404 µM·h.

For the origin of these results see patent US20220298143A1, “Pyrazole Derivatives for FGFR Inhibitor and Preparation Method Thereof” (Etern Biopharma (Shanghai) Co., Ltd., priority 2019, published 2022).
